Experimental data published in patent US4705799A, “Aminomethyl oxooxazolidinyl benzenes useful as antibacterial agents” (E. I. Du Pont de Nemours and Company, priority 1985, dated 1987).
≈ marks a conversion by molar mass, not a printed value.

What was measured:
Escherichia coli [1] = test: In vivo efficacy of orally administered compounds in mouse intraperitoneal infections; conditions: 168 h; mouse i.p. Escherichia coli infection; oral; dosed at infection and 4 h post-infection; 7 days; read-out: ED50 (50 percent effective dose)
Staphylococcus aureus [2] = test: as above; conditions: Staphylococcus aureus, po, 168 h, mouse i.p. Staphylococcus aureus infection; oral; dosed at infection and 4 h post-infection; 7 days; read-out: ED50 (50 percent effective dose)
Escherichia coli [3] = test: In vitro broth dilution minimal inhibitory concentration (standard microdilution method); type: cell-based; conditions: Escherichia coli; Mueller-Hinton broth; 24-hour; read-out: Microdilution Broth MIC
Escherichia coli [4] = test: In vivo efficacy of compounds administered subcutaneously in mouse intraperitoneal infections; conditions: sc, 168 h; mouse i.p. Escherichia coli infection; subcutaneous; dosed at infection and 4 h post-infection; 7 days; read-out: ED50 (50 percent effective dose)
Staphylococcus aureus [5] = test: as above; conditions: sc, 168 h; mouse i.p. Staphylococcus aureus infection; subcutaneous; dosed at infection and 4 h post-infection; 7 days; read-out: ED50 (50 percent effective dose)
[6] = tested on: Staphylococcus epidermidis; test: In vitro broth dilution minimal inhibitory concentration (standard microdilution method); type: cell-based; conditions: 24 h, Mueller-Hinton broth, 24-hour, read-out: Microdilution Broth MIC

SMILES	ED50 (Escherichia coli [1]) [mg/kg]	ED50 (Staphylococcus aureus [2]) [mg/kg]	MIC (Escherichia coli [3]) [µg/mL]	ED50 (Escherichia coli [4]) [mg/kg]	ED50 (Staphylococcus aureus [5]) [mg/kg]	MIC [6] [µg/mL]
CCCCCCN(CC1CN(c2ccc(S(C)(=O)=O)cc2)C(=O)O1)C(C)=O (racemic) [Example 122, (dl)-N-Hexyl-N-[3-[4-(methylsulfonyl)phenyl]-2-oxooxazolidin-5-ylmethyl]acetamide]	> 120	48.4	> 200	> 120	16.3	> 200
CC(=O)N(CC1CN(c2ccc(S(C)(=O)=O)cc2)C(=O)O1)C1CCCCC1 (racemic) [Example 124, (dl)-N-cyclohexyl-N-[3-[4-(methylsulfonyl)phenyl]-2-oxooxazolidin-5-ylmethyl]acetamide]	> 120	48.4	> 200	> 120	16.3	> 200
COC(=O)NCC1CN(c2ccc(S(C)(=O)=O)cc2)C(=O)O1 (single isomer, unassigned) [Example 26, (l)-N-[3-[4-(Methylsulfonyl)phenyl]-2-oxooxazolidin-5-ylmethyl]carbamic acid, methyl ester]	56.2	1.7	100 (≈ 305 µM)	40.7	–	6.3 (≈ 19.2 µM)
NS(=O)(=O)c1ccc(N2CC(CNC(=O)C(Cl)Cl)OC2=O)cc1 (single isomer, unassigned) [Example 112, (l)-2,2-Dichloro-N-[3-[4-(aminosulfonyl)phenyl]-2-oxooxazolidin-5-ylmethyl]acetamide]	> 360	> 360	50 (≈ 131 µM)	62.7	14.4	12.5 (≈ 32.7 µM)
CC(=O)NCC1CN(c2ccc(S(N)(=O)=O)cc2)C(=O)O1 (single isomer, unassigned) [Example 113, (l)-N-[3-[4-(Aminosulfonyl)phenyl]-2-oxooxazolidin-5-ylmethyl]acetamide]	29.7	17.2	100 (≈ 319 µM)	11.7	9.6	25 (≈ 79.8 µM)
CC(=O)NCC1CN(c2ccc(S(=O)(=O)N=[N+]=[N-])cc2)C(=O)O1 (single isomer, unassigned) [Example 114, (l)-N-[3-(4-Azidosulfonylphenyl)-2-oxooxazolidin-5-ylmethyl]acetamide]	10.5	15.3	200 (≈ 589 µM)	12.5	–	200 (≈ 589 µM)
CC(=O)NCC1CN(c2ccc([S+](C)[O-])cc2)C(=O)O1 (single isomer, unassigned) [Example 120, (l)-N-[3-[4-(Methylsulfinyl)phenyl]-2-oxooxazolidin-5-ylmethyl]acetamide]	11.1	3.3	> 200	6.1	2.8	10 (≈ 33.7 µM)
CC(=O)NCC1CN(c2ccc(C(C)=O)cc2)C(=O)O1 (single isomer, unassigned) [Example 129, (l)-N-[3-(4-Acetylphenyl)-2-oxo-5-oxazolidinylmethyl)acetamide]	13.6	0.7	12.5 (≈ 45.2 µM)	14	0.5	0.4 (≈ 1.45 µM)
CC(=O)NCC1CN(c2ccc(C(C)O)cc2)C(=O)O1 (single isomer, unassigned) [Example 130, (l)-N-[3-[4-(1-Hydroxyethyl)phenyl]-2-oxo-5-oxazolidinylmethyl]acetamide]	17.4	2.1	50 (≈ 180 µM)	26.3	< 1.3	3.1 (≈ 11.1 µM)
CC(=O)NCC1CN(c2ccc(C(C)=NNC(C)=O)cc2)C(=O)O1 (single isomer, unassigned) [Example 132, (l)-N-[3-[4-[1-(Acetylhydrazono)ethyl]phenyl]-2-oxo-5-oxazolidinylmethyl]acetamide]	24.7	< 4.4	> 200	> 120	6.9	6.2 (≈ 18.7 µM)
CCc1ccc(N2CC(CNC(C)=O)OC2=O)cc1 (single isomer, unassigned) [Example 133, (l)-N-[3-(4-Ethylphenyl)-2-oxo-5-oxazolidinylmethyl]acetamide]	17.9	3	> 200	15.2	2.2	1.6 (≈ 6.1 µM)
CC(=O)NCC1CN(c2ccc([N+](=O)[O-])cc2)C(=O)O1 (single isomer, unassigned) [Example 146, (l)-N-[3-(4-Nitrophenyl)-2-oxooxazolidin-5-ylmethyl]acetamide]	29.8	2	200 (≈ 716 µM)	40	> 13	2.4 (≈ 8.59 µM)
CC(=O)NCC1CN(c2ccc(S)cc2)C(=O)O1 (single isomer, unassigned) [Example 153, (l)-N-[3-(4-Mercaptophenyl)-2-oxooxazolidin-5-ylmethyl]acetamide]	17	5.7	> 50	57.2	< 13	> 50
CSCC(=O)c1ccc(N2CC(CNC(C)=O)OC2=O)cc1 (single isomer, unassigned) [Example 161, (l)-N-[3-[4-(Methylthioacetyl)phenyl]-2-oxo-5-oxazolidinylmethyl]acetamide]	> 120	10.4	> 200	> 120	5.4	1.6 (≈ 4.96 µM)
CC(=O)NCC1CN(c2ccc(C(C)=NNC(C)=O)cc2)C(=O)O1 (centres unmarked) [Example 36]	47.2	4.7	> 200	> 120	7.4	25 (≈ 75.2 µM)
CC(=O)NCC1CN(c2ccc(C(C)C)cc2)C(=O)O1 (centres unmarked) [Example 38]	> 120	9.1	> 200	60.4	4.8	9.4 (≈ 34 µM)

SMILES	ED50 (Escherichia coli [1]) [mg/kg]	ED50 (Staphylococcus aureus [2]) [mg/kg]	MIC (Escherichia coli [3]) [µg/mL]	ED50 (Escherichia coli [4]) [mg/kg]	ED50 (Staphylococcus aureus [5]) [mg/kg]	MIC [6] [µg/mL]
COC(=O)NCC1CN(c2ccc(C(C)C)cc2)C(=O)O1 (centres unmarked) [Example 39]	> 120	6.1	> 200	> 120	5.5	12.5 (≈ 42.8 µM)
CNS(=O)(=O)c1ccc(N2CC(CNC(C)=O)OC2=O)cc1 (centres unmarked) [Example 46]	62.5	15.8	> 200	91	> 13	12.5 (≈ 38.2 µM)
COCC(=O)NCC1CN(c2ccc(S(C)(=O)=O)cc2)C(=O)O1 (centres unmarked) [Example 57]	39	10.8	100 (≈ 292 µM)	12.9	–	12.5 (≈ 36.5 µM)
CS(=O)(=O)c1ccc(N2CC(CNC(=O)CCl)OC2=O)cc1 (centres unmarked) [Example 67]	> 120	42.5	2.5 (≈ 7.21 µM)	99	18.6	3.2 (≈ 9.23 µM)
CCCCc1ccc(N2CC(CNC(C)=O)OC2=O)cc1 (centres unmarked) [Example 81]	> 120	47.9	> 200	> 120	27.9	6.2 (≈ 21.4 µM)
CCc1ccc(N2CC(CNC(C)=O)OC2=O)cc1 (centres unmarked) [Example 82]	65.9	2.7	> 200	95.1	2	3.1 (≈ 11.8 µM)
CCc1ccc(N2CC(CNC(=O)OC)OC2=O)cc1 (centres unmarked) [Example 83]	> 120	9.6	> 200	> 12	6.6	12.5 (≈ 44.9 µM)
CC(=O)NCC1CN(c2ccc(Br)cc2)C(=O)O1 (centres unmarked) [Example 86]	> 40	6.9	> 200	> 40	4.7	6.25 (≈ 20 µM)
CC(=O)NCC1CN(c2ccc(Cl)cc2)C(=O)O1 (centres unmarked) [Example 87]	> 120	42	> 200	> 120	10.5	100 (≈ 372 µM)
CC(=O)NCC1CN(c2ccc(F)cc2)C(=O)O1 (centres unmarked) [Example 88]	> 120	23.6	> 200	> 120	21.9	> 200
CS(=O)(=O)c1ccc(N2CC(CNC(=O)CCCl)OC2=O)cc1 (centres unmarked) [Example 94]	76.8	30.2	200 (≈ 554 µM)	46.7	18.7	18.8 (≈ 52.1 µM)
CC(=O)c1ccc(N2CC(CNC(=O)CCCl)OC2=O)cc1 (centres unmarked) [Example 95]	> 120	10.9	> 200	60.7	7.7	12.5 (≈ 38.5 µM)
COC(=O)NCC1CN(c2ccc(S(=O)(=O)N=[N+]=[N-])cc2)C(=O)O1 (centres unmarked) [Example 117]	> 120	16.1	> 200	> 120	7.2	200 (≈ 563 µM)
CCC(=O)c1ccc(N2CC(CNC(C)=O)OC2=O)cc1 (stereo not drawn) [Example 134, l-N-[2-oxo-3-[4-(1-oxopropyl)phenyl]-5-oxazolidinylmethyl]acetamide]	46.9	< 4.4	25 (≈ 86.1 µM)	42.1	< 4.4	0.4 (≈ 1.38 µM)
CC(=O)NCC1CN(c2ccc(C(=O)CCl)cc2)C(=O)O1 (stereo not drawn) [Example 135, l-N-[3-[4-(chloroacetyl)phenyl]-2-oxo-5-oxazolidinylmethyl]acetamide]	100	< 4.4	100 (≈ 322 µM)	100	< 4.4	0.15 (≈ 0.483 µM)
CCCc1ccc(N2CC(CNC(C)=O)OC2=O)cc1 (centres unmarked) [Example 136]	100	–	> 200	100	< 4.4	6.25 (≈ 22.6 µM)
